The source of these data is ChEMBL document CHEMBL5053499, “Indole Alkaloids from a Soil-Derived Clonostachys rosea” (J Nat Prod, 2021).

≈ marks a conversion by molar mass, not a printed value. Calls of active or inactive are those of the source. The calls are words filed in the database; no cut-off is given here.

Test [1] concerns Pseudomonas syringae pv. actinidiae. Briefly: Antimicrobial activity against Pseudomonas syringae pv. actinidiae assessed as reduction in bacterial growth measured at 100 ug/ml after 48 hrs by double dilution method. It is filed as functional. To be noted: dose 100.0 µg/ml.
The test system of the next test is Ralstonia solanacearum. Briefly: Antimicrobial activity against Ralstonia solanacearum assessed as reduction in bacterial growth at 100 ug/ml measured after 48 hrs by double dilution method. It is filed as functional, organism-based. The settings on record: dose 100.0 µg/ml.
The next test relates to Bacillus subtilis. Briefly: Antimicrobial activity against Bacillus subtilis assessed as reduction in bacterial growth at 100 ug/ml measured after 48 hrs by double dilution method. The test is classed as functional. To be noted: for Activity: dose 100.0 µg/ml.
For the next test, the system named is Escherichia coli. Briefly: Antimicrobial activity against Escherichia coli assessed as reduction in bacterial growth at 100 ug/ml measured after 48 hrs by double dilution method. The test is classed as functional, organism-based. To be noted: dose 100.0 µg/ml.
For test [2], the system named is Pseudomonas sp. Briefly: Antimicrobial activity against Pseudomonas sp. assessed as reduction in bacterial growth at 100 ug/ml measured after 48 hrs by double dilution method. The test is classed as functional, organism-based. To be noted: dose 100.0 µg/ml.
In another test the test system is HeLa. Briefly: Cytotoxicity against human HeLa cells assessed as reduction in cell viability measured after 48 hrs by CCK8 assay. It is filed as functional, cell-based. In general terms: Formazan colour is commonly taken as a measure of viable cells.
In another test the test system is HepG2. Briefly: Cytotoxicity against human HepG2 cells assessed as reduction in cell viability measured after 48 hrs by CCK8 assay. It is filed as functional, cell-based. The settings on record: HepG2, 48 h.
The next test relates to Bacillus cereus. Briefly: Antimicrobial activity against Bacillus cereus assessed as reduction in bacterial growth at 100 ug/ml measured after 48 hrs by double dilution method. It is filed as functional, organism-based. The settings on record: dose 100.0 µg/ml.
For another test, the system named is Staphylococcus aureus. Briefly: Antimicrobial activity against Staphylococcus aureus assessed as reduction in bacterial growth at 100 ug/ml measured after 48 hrs by double dilution method. The test is classed as functional, organism-based. The settings on record: dose 100.0 µg/ml.
In a further test the test system is Alternaria alternata. Briefly: Antifungal activity against Alternaria alternata assessed as inhibition of fungal growth measured after 72 hrs by double dilution method. The test is classed as functional, organism-based.
The test system of another test is Fusarium oxysporum. Briefly: Antifungal activity against Fusarium oxysporum assessed as inhibition of fungal growth measured after 72 hrs by double dilution method. It is filed as functional.
The test system of another test is Phytophthora capsici. Briefly: Antifungal activity against Phytophthora capsici assessed as inhibition of fungal growth measured after 72 hrs by double dilution method. The test is classed as functional, organism-based.
The test system of test [3] is Pseudomonas sp. Briefly: Antimicrobial activity against Pseudomonas sp. assessed as reduction in bacterial growth measured after 48 hrs by double dilution method. The test is classed as functional.

By IC50 is commonly meant the concentration needed to halve the response being measured. With `C[C@@H](O)[C@]12SS[C@@]3(C(=O)N1C)[C@H](O)[C@@]1(c4c[nH]c5ccccc45)c4ccccc4N[C@H]1N3C2=O`, the outcome (in test [1]; with Ralstonia solanacearum; in the test with Bacillus subtilis; in the test on Escherichia coli; in the test on Pseudomonas sp. [2]; with Bacillus cereus) was inactive. The outcome with Staphylococcus aureus was inactive. In addition, the IC50 came to 0.42 µM in the test with HeLa and 0.6 µM with HepG2.
Consider `CS[C@@]1(Cc2c[nH]c3ccccc23)NC(=O)[C@@](SC)([C@@H](C)O)NC1=O`, for which the outcome (in test [1]; in the test with Ralstonia solanacearum; in the test with Bacillus subtilis; in the test with Escherichia coli; with Pseudomonas sp. [2]; in the test with Bacillus cereus) was inactive. Further, the result with Staphylococcus aureus was inactive. Further, the IC50 with HeLa and in the test on HepG2 was over 20 µM in each case.
`CS[C@@H]1C(=O)N2[C@@H]3Nc4ccccc4[C@]3(c3c[nH]c4ccccc34)[C@@H](O)[C@@]2(SC)C(=O)N1C`: the result (in [1]; in the test on Ralstonia solanacearum; in the test on Bacillus subtilis; in the test on Escherichia coli; in the test with Pseudomonas sp. [2]; with Bacillus cereus) was inactive. Further, the result with Staphylococcus aureus was inactive. For the same molecule, the IC50 in the test with HeLa and in the test on HepG2 was over 20 µM throughout.
As a reminder, the MIC is the least concentration at which growth counts as inhibited. Consider `C[C@@H](O)[C@@H]1NC(=O)[C@H](Cc2c[nH]c3ccccc23)NC1=O`, for which the result (in test [1]; with Ralstonia solanacearum; with Bacillus subtilis; with Escherichia coli; in the test on Pseudomonas sp. [2]; in the test with Bacillus cereus) was inactive. The result in the test with Staphylococcus aureus, in the test on Alternaria alternata, with Fusarium oxysporum and with Phytophthora capsici was inactive. In addition, the IC50 in the test on HeLa and with HepG2 was over 20 µM in each case. For the same molecule, the MIC with Pseudomonas sp. [3] was found to be 50 µg/mL (≈ 174 µM).
Take `O=C(O)c1ccc(O)c2c1Cc1cccn1-2`: the result (in [1]; in the test with Ralstonia solanacearum; with Bacillus subtilis; with Escherichia coli; in the test with Pseudomonas sp. [2]; in the test on Bacillus cereus) was inactive. Further, the result in the test with Staphylococcus aureus, with Alternaria alternata, in the test on Fusarium oxysporum and with Phytophthora capsici was inactive. For the same molecule, the IC50 with HeLa and with HepG2 was over 20 µM throughout.
As to `CN1C(=O)C(=O)N2C(=C[C@@]3(c4c[nH]c5ccccc45)c4ccccc4N[C@@H]23)C1=O`, the result (in test [1]; with Ralstonia solanacearum; in the test with Bacillus subtilis; in the test with Escherichia coli; with Pseudomonas sp. [2]; in the test with Bacillus cereus) was inactive. The outcome with Staphylococcus aureus was inactive. Besides, the IC50 with HeLa and with HepG2 was over 20 µM each time.
As for `C[C@H](O)[C@H]1NC(=O)[C@@H](Cc2c[nH]c3ccccc23)NC1=O`, the MIC in the test on Bacillus subtilis (dose 100 µg/ml) amounted to 25 µg/mL (≈ 87 µM). Further, the outcome in the test with Alternaria alternata, in the test on Fusarium oxysporum and in the test on Phytophthora capsici was inactive.
For the molecule `C[C@@H](O)[C@@H]1OC(=O)[C@@H]2[C@H]3c4c[nH]c5cccc(c45)C[C@H]3C(C)(C)N2C1=O`, the outcome (in test [1]; in the test with Ralstonia solanacearum; with Bacillus subtilis; in the test with Escherichia coli; in the test with Pseudomonas sp. [2]; with Bacillus cereus) was inactive. Also, the outcome with Staphylococcus aureus, in the test with Alternaria alternata and with Phytophthora capsici was inactive. Besides, the IC50 in the test with HeLa and in the test with HepG2 was over 20 µM throughout. For the same molecule, in the test with Fusarium oxysporum, the MIC worked out at 50 µg/mL (≈ 141 µM).
With `C[C@@H](O)[C@]12SS[C@@]3(C(=O)N1C)[C@H](O)C1([C@]45c6ccccc6N[C@H]4N4C(=O)[C@@]6([C@@H](C)O)SS[C@@]4(C(=O)N6C)[C@@H]5O)c4ccccc4N[C@H]1N3C2=O` (stereo not given in full), the outcome (in test [1]; in the test on Ralstonia solanacearum; with Bacillus subtilis; with Escherichia coli; in the test on Pseudomonas sp. [2]; in the test with Bacillus cereus) was inactive. The outcome in the test on Staphylococcus aureus was inactive. The IC50 in the test with HeLa was found to be 0.12 µM; with HepG2 it was 0.37 µM.
As to `CS[C@@]1(Cc2c[nH]c3ccccc23)NC(=O)[C@H]([C@@H](C)O)NC1=O`, the outcome (in test [1]; with Ralstonia solanacearum; with Bacillus subtilis; with Escherichia coli; in the test with Pseudomonas sp. [2]; in the test with Bacillus cereus) was inactive. Further, the result in the test on Staphylococcus aureus was inactive. The IC50 in the test with HeLa and in the test on HepG2 was over 20 µM throughout.
